Measurements from US10302644B2, “Compositions and methods for treating multiple myeloma” (Dana-Farber Cancer Institute, Inc., priority 2014, dated 2019).

What was measured:
B cell = B cell growth inhibition; assay type: cell-based
IL-2 production = test: Co-stimulation of IL-2 production; assay type: cell-based
[1] = system: LC3-II, Bim, PARP, MDM2, XIAP, cIAP, p-p70S6K; test: Immunoblotting/qPCR of autophagy and apoptosis proteins in MM cells; assay type: cell-based
Method: (§1) MM cells were harvested and lysed using RIPA-lysis buffer (Boston Bioproducts, Ashland, Mass.) containing 5 mM EDTA, 5 mM NaF, 2 mM Na3VO4, 1 mM PMSF, 5 μg/ml leupeptin, and 5 μg/ml aprotinin. Nuclear proteins were extracted using “Nuclear Extraction Kit” (Affimetrix). After the determination of protein concentration using DC protein assay (Bio-Rad, Hercules, Calif.), β-mercaptoethanol (-ME) was added to the whole-cell lysates to a 2% final concentration. The whole cell lysates or nuclear extracts were subjected to SDS-PAGE, transferred to nitrocellulose membranes (Bio-Rad, Hercules, Calif.) or polyvinylidene fluoride membranes (Millipore, Billerica, Mass.), and immunoblotted with indicated Abs. Silver staining was carried out using “SilverQuest Staining Kit®” (Invitrogen), according to manufacturer's protocol.
(§2) RNA was extracted using Trizol (Invitrogen) and quantified by a Nanodrop spectrophotometer (Labtech). Specifically, 5×10^6 cells were pelleted, washed with cold PBS, and resuspended in 1 mL Trizol. They were then incubated with 1-Bromo-3-chloropropane (Sigma), washed first with Isopropyl alcohol and then with 75% Ethanol, and resuspended in Nuclease Free-water (Invitrogen). After quantification, 2000 ng of RNA was used to synthesize cDNA via the Superscript II First strand synthesis Kit (Invitrogen), according to the manufacturer's instructions. To evaluate the expression levels of TP53RK, BCL2L11, MYC, Bim, E2F1, TP53, IKZF1, IKZF3, RRM1, p18CDKN2C, PSMB5, PSMB7, PSMA3 and GAPDH, quantitative real time PCR (QRT-PCR) was performed using SYBR GREEN PCR Master Mix (Applied Biosystem), after optimization of the primer conditions. cDNAs were diluted 1:100 or 1:1000 and amplified in a 20 μL reaction. Primers were used at 200 nM or 400 nM concentration. Thermal cycling conditions were: 10 minutes at 95° C., 40 cycles at 95° C. for 15 seconds, followed by 1 minute at 60° C. Real-time quantitative PCR was performed on ABI Prism 7300 Sequence Detection System (Applied Biosystems). Data were analyzed using the delta delta Ct method. GAPDH was used as an invariant control.

p53 [2] = test: Immunoblotting of p53 and phosphorylated p53 in MM cells; assay type: cell-based
Method: as §1

MM cells = test: Growth inhibition assay (MTT) / viable cell count (Trypan-blue); assay type: cell-based
Method: Cell growth was assessed by measuring 3-(4,5-dimethylthiazol-2-yl)-2,5-diphenyl […] bromide (MTT, Chemicon International, Temecula, Calif.) dye absorbance. Cells were pulsed with 10 μl of 5 mg/ml MTT to each well for the last 4 h of 48 h and/or 72 h cultures, followed by 100 μl isopropanol containing 0.04N HCl. Absorbance was measured at 570/630 nm using a spectrophotometer (Molecular Devices Corp., Sunnyvale Calif.).

p53 [3] = test: p53 DNA binding activity assay; assay type: cell-based; details: MM.1S and H929 cells, 48 h
Method: E2F1 DNA binding activity was assessed by electrophoretic mobility shift assay (EMSA) using “EMSA Gel Shift Kit®” from Affimetrix (Santa Clara, Calif.), and p53 DNA binding activity was performed using “p53 Transcription Factor Assay Kit®” from Cayman Chemical (Ann Arbor, Mich.). Experiments were carried out according to manufacturer's protocols.

TP53RK = biological target: T1, TP53RK (Homo sapiens, UniProt Q96S44); test: In vitro TP53RK auto-phosphorylation assay; assay type: biochemical; details: dose-dependent; recombinant TP53RK and TPRKB
T1 construct: made in house; host or cells: HEK-293FT (transient calcium phosphate transfection; anti-DDK beads, Superdex 200)
From the text: Full-length TP53RK and TPRKB sequences obtained from OriGene (Rockville, Md.) were cloned and inserted into pCMV6-AC-Myc-DDK. These constructs were transiently transfected into HEK-293FT cells to overexpress recombinant C-terminal Myc-DDK tagged TP53RK and TPRKB by calcium phosphate transfection. The recombinant proteins were immunoprecipitated with anti-DDK agarose beads and subjected to gel chromatography using Superdex 200 sizing column with an HPLC system. TP53RK and TPRKB proteins were co-eluted in the same fraction, whereas the TPRKB single protein was eluted in later fractions.
In vitro TP53RK auto-phosphorylation assay was performed as previously described^2. Briefly, purified recombinant TP53RK and TPRKB proteins (1.5-3 μg/reaction) were incubated with 25 uM [γ-32P]ATP (3000 Ci/mmol, 10 mCi/mL, PerkinElmer, Boston, Mass.) in HEPES buffer (25 mM HEPES (pH 7.5), 100 mM NaCl, 25 mM MgCl2. 2 mM DTT, phosphatase inhibitor mix (Roche) for 30 min at 30° C. The reaction was terminated by adding SDS sample buffer, and reaction mixtures were subjected to SDS-PAGE and autoradiography, as well as Coomassie blue staining.

Chk1, ATM, ATR, Chk2 = test: Immunoblotting of DNA damage kinase phosphorylation; assay type: cell-based; details: MM.1S cells, 48 h
Method: as §1

E2F1 = E2F1 DNA binding activity (EMSA), protein and mRNA; assay type: cell-based; details: MM cells
Method: (§3) MM cells were harvested and lysed using RIPA-lysis buffer (Boston Bioproducts, Ashland, Mass.) containing 5 mM EDTA, 5 mM NaF, 2 mM Na3VO4, 1 mM PMSF, 5 μg/ml leupeptin, and 5 μg/ml aprotinin. Nuclear proteins were extracted using “Nuclear Extraction Kit” (Affimetrix). After the determination of protein concentration using DC protein assay (Bio-Rad, Hercules, Calif.), β-mercaptoethanol (-ME) was added to the whole-cell lysates to a 2% final concentration. […]
(§4) RNA was extracted using Trizol (Invitrogen) and quantified by a Nanodrop spectrophotometer (Labtech). […] After quantification, 2000 ng of RNA was used to synthesize cDNA via the Superscript II First strand synthesis Kit (Invitrogen), according to the manufacturer's instructions. To evaluate the expression levels of TP53RK, BCL2L11, MYC, Bim, E2F1, TP53, IKZF1, IKZF3, RRM1, p18CDKN2C, PSMB5, PSMB7, PSMA3 and GAPDH, quantitative real time PCR (QRT-PCR) was performed using SYBR GREEN PCR Master Mix (Applied Biosystem), after optimization of the primer conditions. cDNAs were diluted 1:100 or 1:1000 and amplified in a 20 μL reaction. […] Real-time quantitative PCR was performed on ABI Prism 7300 Sequence Detection System (Applied Biosystems). Data were analyzed using the delta delta Ct method. […]

c-Myc, IKZF1/3 = test: c-Myc and IKZF1/3 expression (immunoblotting, qPCR); assay type: cell-based; details: MM.1S cells
Method: as §3, §4

RRM1, p18CDKN2C = test: RRM1 and p18CDKN2C expression (RT-qPCR, Western blot); assay type: cell-based; details: H929 cells
Method: as §1, §2

proteasome = test: Proteasome pathway (GSEA, qPCR) and chymotrypsin-like proteasome activity assay; assay type: cell-based; details: H929 cells
Method: as §2
Expression data for plasma cells from healthy donors, monoclonal gammopathy of undetermined significance (MGUS), and smoldering myeloma (SMM) were derived from GSE5900 dataset, while expression data from normal plasma cells and 65 MM patients were obtained from GSE4452 dataset, using expression profiling on Affymetrix GeneChip (t test, unpaired, equal variance). […] Data were then normalized and analyzed using D-chip software, seeking statistically significant differences among groups or in p53-target gene expression. Statistical significance was determined by Student t test. The minimal level of significance was P<0.05. […] Gene set enrichment analysis (GSEA) was performed as previously described (2) (GSEA v2.0 at http://www.broad.mit.edu/gsea) using gene set as permutation type, as well as 1,000 permutations and signal to noise as metrics for ranking genes.
Proteasome activity was measured by using Proteasome-Glo™ chymotrypsin-like cell-based assay (Promega, Madison, Wis.) according to manufacturer's protocol.

hTERT = hTERT expression and telomerase activity (TeloTAGGG Telomerase PCR ELISA); assay type: cell-based; details: MM.1S cells and H929 cells
Method: as §1
Telomerase activity in MM.1S and H929 cells was assessed by “TeloTAGGG Telomerase PCR ELISA®” from Roche Applied Science (Mannheim, Germany).

TP53RK, CRBN = test: TP53RK and CRBN expression in MM cells (immunoblotting, qPCR); assay type: cell-based; details: MM.1S cells, 48 h
Method: as §1, §2
pLKO.1-based shRNA vectors were obtained from the RNAi Consortium (Broad Institute). […] After 24 h of infection, cells expressing shRNA were selected with puromycin dihydrochloride (Sigma-Aldrich) at 1-2 μg/ml for 48 h, and then examined for proliferation and/or subjected to immunoblotting analysis. For siRNA transfection, scrambled, TP53RK, CRBN, p53, c-Myc and RRM1 siRNAs were purchased from Thermo Scientific (Lafayette, Colo.). siRNA transfection was carried out by Amaxa electroporation system using “Cell Line Nucleofector® Kit V or C” solution (Lonza, Koln, Germany).

[4] = MM.1S cells, Nutlin-3a 0.5 μM, 48 h

T1 sequence (Q96S44 whole entry, other chains not shown): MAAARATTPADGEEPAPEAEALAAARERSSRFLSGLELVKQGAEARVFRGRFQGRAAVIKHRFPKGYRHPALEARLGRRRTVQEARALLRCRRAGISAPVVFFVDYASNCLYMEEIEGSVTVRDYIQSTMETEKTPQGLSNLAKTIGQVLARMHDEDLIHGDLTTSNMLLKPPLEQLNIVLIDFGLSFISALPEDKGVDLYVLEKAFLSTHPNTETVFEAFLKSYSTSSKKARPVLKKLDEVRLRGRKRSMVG

## CC1(N2C(=O)c3cccc(N)c3C2=O)CCC(=O)NC1=O (centres unmarked) [3′-methyl derivative]
B cell
  activity in B cell growth inhibition relative to pomalidomide: similar
IL-2 production
  activity in co-stimulation of IL-2 production relative to pomalidomide: similar

## CCOc1ccc(C(Nc2ccccn2)c2ccc3ccc(C)nc3c2O)cc1C (centres unmarked) [HLM006474]
[1]; dose-dependent
  IMiDs-induced Bim upregulation: blocked

## COc1ccc(C2=N[C@@H](c3ccc(Cl)cc3)[C@@H](c3ccc(Cl)cc3)N2C(=O)N2CCNC(=O)C2)c(OC(C)C)c1 [Nut3, Nutlin-3a]
p53 [2]; [4]
  p-p53 and p53 levels: upregulated
[1]; MM.1S cells
  IMiD-triggered PARP cleavage in presence of Nut3: enhanced
  MDM2 and XIAP expression: upregulated
[1]; [4]
  LC3-II upregulation triggered by Len and Pom, in presence of Nut3: markedly downregulated

## Nc1cccc2c1C(=O)N(C1CCC(=O)NC1=O)C2=O (centres unmarked) [Pom, pomalidomide]
MM cells; H929 cells, 48 h
  drug-triggered growth inhibition in kinase-dead D163A TP53RK transfectants: abrogated
MM cells; H929 cells, TP53RK siRNA then Pom 48 h, p<0.02
  Pom-induced MM cell growth inhibition after TP53RK knockdown: enhanced
MM cells; MM.1S and H929 cells with wt-p53 versus cell lines with mutant p53
  sensitivity of MM cell lines to drug: more sensitive
MM cells; OPM2 cells (mutant p53) and H929 cells (wt-p53)
  drug-triggered cell death after CRBN knock-down: only partially abrogates
MM cells; among the IMiDs Thal, Len, Pom
  anti-MM activity: most potent anti-MM activity
p53 [2]; MM.1S cells
  potency of p-p53/p53 downregulation, Pom versus Len: more potently
p53 [2]; MM.1S cells, 2.5 μM, 48 h
  p53 phosphorylation at Ser20 and Ser37: no change
  phosphorylated (p-Ser15)-p53 and p53 levels: downregulated
p53 [2]; MM.1S cells, 48 h
  downstream p-p53 level: markedly reduced
p53 [2]; MM.1S cells, Len or Pom 2.5 μM with Nutlin-3a 0.5 μM, 48 h
  Nut3-induced upregulation of p-p53 and p53: inhibited
p53 [2]; nuclear extracts from MM.1S and H929 cell lines, patient MM cells
  p-p53/p53 downregulation: further confirmed
p53 [3]
  p53 activity (p53 DNA binding): block
TP53RK
  in vitro auto-phosphorylation of TP53RK: markedly downregulated
Chk1, ATM, ATR, Chk2
  phosphorylation of ATM, ATR or Chk2: not
  phosphorylation of Chk1: inhibited
[1]; MM.1S cells, 2.5 μM, 48 h
  LC3-II level: upregulation
E2F1
  E2F1: increases
c-Myc, IKZF1/3
  c-Myc transcription (real-time qPCR): decreased transcription
RRM1, p18CDKN2C
  RRM1 expression: downregulate
  p18CDKN2C expression: upregulate
proteasome
  chymotrypsin-like proteasome activity: downregulation
  proteasome pathway (GSEA): downregulation
hTERT
  hTERT expression: significantly inhibited
  telomerase (hTERT) activity: significantly inhibited
TP53RK, CRBN
  TP53RK level: induced downregulation
